# Reference: ChEMBL document CHEMBL5370646, “Synthesis and Conformational Analysis of FR901464-Based RNA Splicing Modulators and Their Synergism in Drug-Resistant Cancers” (J Med Chem, 2023)
# Calls of active or inactive are those of the source. The calls are words filed in the database; no cut-off is given here.
# Tests used:
# [1] = Synergistic antiproliferative activity against human Osimertinib-resistant HCC827AR cell assessed as combination index at 1 nM incubated for 72 hrs in presence of 0.50 uM osimertinib by WST-1 assay; format: functional
# [2] = test system: DMS-114; assay: Synergistic antiproliferative activity against human DMS-114 cells assessed as combination index at 3 nM incubated for 72 hrs in presence of 12 uM venetoclax by WST-1 assay; format: functional
# [3] = test system: DMS-53; assay: Synergistic antiproliferative activity against human DMS-53 cells assessed as combination index at 2 nM incubated for 72 hrs in presence of 400 […] by WST-1 assay; format: functional
# [4] = Synergistic antiproliferative activity against human Osimertinib-resistant HCC827AR cell assessed as combination index at 1 nM incubated for 72 hrs in presence of 4 uM osimertinib by WST-1 assay; format: functional
# [5] = test system: DMS-114; assay: Synergistic antiproliferative activity against human DMS-114 cells assessed as combination index at 1 nM incubated for 72 hrs in presence of 6 uM venetoclax by WST-1 assay; format: functional
# [6] = Synergistic antiproliferative activity against human Osimertinib-resistant HCC827AR cell assessed as combination index at 1.5 nM incubated for 72 hrs in presence of 1 uM osimertinib by WST-1 assay; format: functional
# [7] = Synergistic antiproliferative activity against human Osimertinib-resistant HCC827AR cell assessed as combination index at 1.5 nM incubated for 72 hrs in presence of 4 uM osimertinib by WST-1 assay; format: functional
# [8] = test system: DMS-114; assay: Synergistic antiproliferative activity against human DMS-114 cells assessed as combination index at 3 nM incubated for 72 hrs in presence of 2.4 uM venetoclax by WST-1 assay; format: functional
# [9] = test system: DMS-114; assay: Synergistic antiproliferative activity against human DMS-114 cells assessed as combination index at 2 nM incubated for 72 hrs in presence of 3.6 uM venetoclax by WST-1 assay; format: functional
# [10] = test system: HCT-116; assay: Growth inhibition of human HCT-116 cells assessed as reduction in cell viability incubated for 72 hrs; format: functional
# [11] = test system: DMS-114; assay: Synergistic antiproliferative activity against human DMS-114 cells assessed as combination index at 1 nM incubated for 72 hrs in presence of 3.6 uM venetoclax by WST-1 assay; format: functional
# [12] = test system: DMS-114; assay: Synergistic antiproliferative activity against human DMS-114 cells assessed as combination index at 1 nM incubated for 72 hrs in presence of 2.4 uM venetoclax by WST-1 assay; format: functional
# [13] = test system: A549; assay: Growth inhibition of human A549 cells assessed as reduction in cell viability incubated for 72 hrs; format: functional
# [14] = test system: HCT-116; assay: Modulation of RNA splicing in human HCT-116 cells assessed as decrease in SF3B1 phosphorylation at thr313 residue by Western blot analysis; format: functional, cell-based; conditions: dose 3-100 nM
# [15] = test system: DMS-53; assay: Synergistic antiproliferative activity against human DMS-53 cells assessed as combination index at 2 nM incubated for 72 hrs in presence of 50 […] by WST-1 assay; format: functional
# [16] = test system: DMS-53; assay: Synergistic antiproliferative activity against human DMS-53 cells assessed as combination index at 1.5 nM incubated for 72 hrs in presence of […] venetoclax by WST-1 assay; format: functional
# [17] = test system: DMS-114; assay: Synergistic antiproliferative activity against human DMS-114 cells assessed as combination index at 2 nM incubated for 72 hrs in presence of 12 uM venetoclax by WST-1 assay; format: functional
# [18] = Metabolic stability in CD1 mouse plasma measured after 48 hrs by LC-MS analysis; format: ADME, cell-free
# [19] = test system: DMS-53; assay: Synergistic antiproliferative activity against human DMS-53 cells assessed as combination index at 1.5 nM incubated for 72 hrs in presence of […] venetoclax by WST-1 assay; format: functional
# [20] = Synergistic antiproliferative activity against human Osimertinib-resistant HCC827AR cell assessed as combination index at 1.5 nM incubated for 72 hrs in presence of 0.50 uM osimertinib by WST-1 assay; format: functional
# [21] = Synergistic antiproliferative activity against human Osimertinib-resistant HCC827AR cell assessed as combination index at 1.5 nM incubated for 72 hrs in presence of 0.25 uM osimertinib by WST-1 assay; format: functional
# [22] = test system: DMS-53; assay: Synergistic antiproliferative activity against human DMS-53 cells assessed as combination index at 1.5 nM incubated for 72 hrs in presence of […] venetoclax by WST-1 assay; format: functional
# [23] = test system: DMS-114; assay: Growth inhibition of human DMS-114 cells assessed as reduction in cell viability incubated for 72 hrs; format: functional
# [24] = Growth inhibition of human CCD-841CoN cells assessed as reduction in cell viability incubated for 72 hrs; format: toxicity, cell-based
# [25] = Growth inhibition of mouse FL83B cells assessed as reduction in cell viability incubated for 72 hrs; format: toxicity, cell-based
# [26] = test system: DMS-53; assay: Growth inhibition of human DMS-53 cells assessed as reduction in cell viability incubated for 72 hrs; format: functional
# [27] = test system: DMS-114; assay: Synergistic antiproliferative activity against human DMS-114 cells assessed as combination index at 1 nM incubated for 72 hrs in presence of 12 uM venetoclax by WST-1 assay; format: functional
# [28] = test system: DMS-53; assay: Synergistic antiproliferative activity against human DMS-53 cells assessed as combination index at 0.5 nM incubated for 72 hrs in presence of 25 uM venetoclax by WST-1 assay; format: functional
# [29] = test system: DMS-114; assay: Modulation of RNA splicing in human DMS-114 cells at 3 to 30 nM by Western blot analysis; format: functional, cell-based; conditions: dose 3-30 nM
# [30] = test system: DMS-114; assay: Synergistic antiproliferative activity against human DMS-114 cells assessed as combination index at 2 nM incubated for 72 hrs in presence of 6 uM venetoclax by WST-1 assay; format: functional
# [31] = test system: DMS-114; assay: Synergistic antiproliferative activity against human DMS-114 cells assessed as combination index at 3 nM incubated for 72 hrs in presence of 6 uM venetoclax by WST-1 assay; format: functional
# [32] = Synergistic antiproliferative activity against human Osimertinib-resistant HCC827AR cell assessed as combination index at 2.5 nM incubated for 72 hrs in presence of 1 uM osimertinib by WST-1 assay; format: functional
smiles,measurement,setting,value
COCO[C@@H](C)/C=C\C(=O)N[C@@H]1C[C@H](C)[C@H](C/C=C(C)/C=C/[C@H]2OC(C)(C)C[C@@]3(CO3)[C@@H]2O)O[C@@H]1C,CI,[1],1.42
same,CI,[2],0.14
same,CI,[3],0.33
same,CI,[4],0.93
same,CI,[5],1.46
same,CI,[6],1.5
same,CI,[7],0.92
same,CI,[8],0.21
same,CI,[9],0.63
same,GI50,[10],2 nM
same,CI,[11],1.34
same,CI,[12],1.11
same,GI50,[13],3.9 nM
same,Activity,[14],Dose-Dependent Effect
same,CI,[15],0.47
same,CI,[16],0.72
same,CI,[17],0.44
same,Stability,[18],Stable
same,CI,[19],0.51
same,CI,[20],1.28
same,CI,[21],0.92
same,CI,[22],0.67
same,GI50,[23],2.3 nM
same,GI50 at 72 h,[24],9.6 nM
same,GI50 at 72 h,[25],5.7 nM
same,GI50,[26],2.7 nM
same,CI,[27],0.88
same,CI,[28],1.33
same,Activity,[29],Active
same,CI,[30],0.67
same,CI,[31],0.2
same,CI,[32],1.04
